US20230392123A1, “[…]-ASSEMBLED PEPTIDE HYDROGELS […]” (KATHOLIEKE UNIVERSITEIT LEUVEN, priority 2020, published 2023)
Entries after “also recorded” stand apart in the source; their conditions may differ.

Test system: HepG2 cells
Assay: Live/dead staining of HepG2 hydrogel spheroids in 384 well plate, high-content imaging
Format: cell-based
Conditions: 0.1% Triton X for 15 minutes, after 19 days of culture, toxic control
Procedure: High-throughput assays: HepG2 cells were cultured in 2D in DMEM (Invitrogen Cat #31885)+10% fetal bovine serum (FBS). Cells were detached at passage 12 by 0.05% trypsin and mixed (1×10^7 cells/ml) with Puramatrix™+10% Bovine Collagen I (Gibco, Ref: A10644-01, Auckland, NZ) and 1 ul of the mix was pipetted in each well of a 384 well plate (Greiner microplate, Ref: 787979) to form the HepG2 hydrogel spheroids (one hydrogel spheroid per well). Hydrogel spheroids were maintained in HepG2 medium and the medium change was handled automatically by a robotic platform (NextGenQBio) for 19 days. Live/dead staining (Invitrogen, Ref:3224) was performed on the cell in the spheroids according the manufacturer's instruction. Prior to live/dead staining, a group of the hydrogel spheroids were treated with 0.1% Triton X for 15 minutes as control. Nuclei was stained by Hoechst (1:1000 dilution) for 15 minutes. The plate was imaged by a high-content analysis system (Operetta, PerkinElmer®). […] This experiment highlights the potential of hydrogel spheroids to be used in a high-throughput set up specifically important for drug/compound screening and toxicity studies.

Substance: Triton X
- live (green)/dead (red) staining of HepG2 cells in hydrogel spheroids: minimal or no green colour; also recorded: cell death
